We go through five molecules from ChEMBL document CHEMBL1201862, “PubChem BioAssay data set” (2004).

Experiment [1] can be described thus: HPDE-C7 pancreatic duct cell viability loss – fluorescence, HTS (AID 430). As to conditions: Homo sapiens. It is filed as functional, cell-based.
For experiment [2], the target named is T1, E3 ubiquitin-protein ligase XIAP (Homo sapiens, UniProt P98170). The experiment can be described thus: Counter Screen using XIAP-Bir3 for Chemical Antagonists of Bir1/2 domains of IAP-family anti-apoptotic proteins. [Related pubchem assays (depositor defined):AID1018, AID1449, AID1514, AID1638, AID1749, AID1750, AID488957, AID488963].
For experiment [3], the target named is T1, E3 ubiquitin-protein ligase XIAP. The experiment can be described thus: small molecules displacing peptide from XIAP – biochemical, IAP family, fluorescence polarization (AID 1018). Format: functional.
Experiment [4] is described as follows: viability loss of HPDE-C7K cells – cell-based, fluorescence, HTS, primary screen (AID 431). Format: functional. The following applies: Homo sapiens.
Experiment [5] has as its target T2, Calpain-2 catalytic subunit (Sus scrofa, UniProt P43367).
T2 sequence (P43367 whole entry): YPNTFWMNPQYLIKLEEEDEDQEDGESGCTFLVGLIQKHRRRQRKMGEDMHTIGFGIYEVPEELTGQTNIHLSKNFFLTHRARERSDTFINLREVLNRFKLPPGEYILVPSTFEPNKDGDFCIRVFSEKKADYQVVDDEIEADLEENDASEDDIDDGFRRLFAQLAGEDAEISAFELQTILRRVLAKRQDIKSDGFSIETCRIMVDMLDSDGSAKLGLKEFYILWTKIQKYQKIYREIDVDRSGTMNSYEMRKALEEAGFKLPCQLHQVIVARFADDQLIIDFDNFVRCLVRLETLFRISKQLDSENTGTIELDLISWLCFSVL
The experiment in a line: m-calpain protease blockers, concentration series – biochemical, fluorogenic peptide substrate, dose response (AID 1420). It is filed as functional.

For a further experiment, the target named is T3, Coagulation factor XII (Homo sapiens, UniProt P00748).
T3 sequence (P00748 whole entry): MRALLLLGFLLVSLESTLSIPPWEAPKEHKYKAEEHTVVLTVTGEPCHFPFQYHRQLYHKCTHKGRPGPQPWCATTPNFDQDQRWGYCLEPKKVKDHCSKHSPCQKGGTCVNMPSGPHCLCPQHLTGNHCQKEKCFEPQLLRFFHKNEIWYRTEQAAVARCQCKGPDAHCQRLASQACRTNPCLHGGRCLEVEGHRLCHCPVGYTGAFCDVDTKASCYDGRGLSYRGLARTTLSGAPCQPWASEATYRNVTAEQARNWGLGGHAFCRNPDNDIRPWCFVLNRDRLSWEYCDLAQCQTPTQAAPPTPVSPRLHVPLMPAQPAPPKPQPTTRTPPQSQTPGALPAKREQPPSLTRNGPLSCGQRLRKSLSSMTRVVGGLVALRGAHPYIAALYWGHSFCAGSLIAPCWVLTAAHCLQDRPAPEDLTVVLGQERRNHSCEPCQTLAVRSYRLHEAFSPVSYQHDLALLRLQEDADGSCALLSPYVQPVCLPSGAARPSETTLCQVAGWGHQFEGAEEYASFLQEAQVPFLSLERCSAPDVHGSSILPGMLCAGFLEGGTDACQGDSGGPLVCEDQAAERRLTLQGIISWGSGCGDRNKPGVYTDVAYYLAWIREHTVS
The experiment can be described thus: Factor XIIa Dose Response Confirmation from Single Well HTS. [Related pubchem assays (depositor defined):AID701]. It is filed as functional.

For experiment [6], the target named is T4, Tyrosine-protein phosphatase non-receptor type 7 (Homo sapiens, UniProt P35236).
T4 sequence (P35236 whole entry): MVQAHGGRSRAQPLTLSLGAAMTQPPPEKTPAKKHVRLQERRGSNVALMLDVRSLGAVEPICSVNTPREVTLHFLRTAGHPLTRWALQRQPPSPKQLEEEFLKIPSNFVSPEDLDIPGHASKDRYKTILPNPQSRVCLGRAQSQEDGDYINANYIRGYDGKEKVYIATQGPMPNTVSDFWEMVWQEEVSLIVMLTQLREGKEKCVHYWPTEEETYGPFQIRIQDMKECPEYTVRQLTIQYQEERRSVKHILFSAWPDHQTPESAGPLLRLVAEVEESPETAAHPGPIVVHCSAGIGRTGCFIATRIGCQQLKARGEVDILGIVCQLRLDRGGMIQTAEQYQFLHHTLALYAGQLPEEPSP
The experiment can be described thus: inhibition of hematopoietic tyrosine phosphatase HePTP – biochemical, set 2, SAR follow-up (AID 449736). It is filed as functional.

The target of experiment [7] is T5, RNA-binding protein pos-1 (Caenorhabditis elegans, UniProt G5EF15).
T5 sequence (G5EF15 whole entry): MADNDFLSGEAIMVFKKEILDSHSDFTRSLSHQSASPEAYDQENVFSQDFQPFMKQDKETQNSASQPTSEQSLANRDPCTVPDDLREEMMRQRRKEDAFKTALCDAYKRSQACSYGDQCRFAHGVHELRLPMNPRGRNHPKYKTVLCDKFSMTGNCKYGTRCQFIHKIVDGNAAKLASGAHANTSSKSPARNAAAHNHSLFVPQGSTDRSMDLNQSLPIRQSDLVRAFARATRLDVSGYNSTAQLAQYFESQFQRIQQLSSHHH
The experiment can be described thus: disruptors of C. elegans POS-1 RNA interaction – biochemical, fluorescence polarization, dose response (AID 1964).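 Note: purified POS-1 fused to maltose binding protein made in E. coli; potency of compounds blocking POS-1 binding to fluorescent RNA.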 In general terms: In fluorescence polarisation assays a small probe gives low polarisation when free and higher when bound to something large.

The target of experiment [8] is Intestinal-type alkaline phosphatase (Mus musculus, UniProt P24822). The experiment in a line: PubChem AID 488874. Format: functional.
Experiment [9] deals with T6, Intestinal-type alkaline phosphatase (Homo sapiens, UniProt P09923). The experiment can be described thus: human intestinal alkaline phosphatase activators, dose response, biochemical, luminescence, uHTS hits (AID 463120). Format: functional.
Experiment [10] addresses T6, Intestinal-type alkaline phosphatase. The experiment can be described thus: activation of human intestinal alkaline phosphatase – biochemical, luminescent, uHTS hits, set 2, dose response (AID 488817).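 Note: potency of activators that raise enzyme activity.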 Format: functional.
The target of experiment [11] is T7, Alkaline phosphatase, tissue-nonspecific isozyme (Homo sapiens, UniProt P05186).
T7 sequence (P05186 whole entry): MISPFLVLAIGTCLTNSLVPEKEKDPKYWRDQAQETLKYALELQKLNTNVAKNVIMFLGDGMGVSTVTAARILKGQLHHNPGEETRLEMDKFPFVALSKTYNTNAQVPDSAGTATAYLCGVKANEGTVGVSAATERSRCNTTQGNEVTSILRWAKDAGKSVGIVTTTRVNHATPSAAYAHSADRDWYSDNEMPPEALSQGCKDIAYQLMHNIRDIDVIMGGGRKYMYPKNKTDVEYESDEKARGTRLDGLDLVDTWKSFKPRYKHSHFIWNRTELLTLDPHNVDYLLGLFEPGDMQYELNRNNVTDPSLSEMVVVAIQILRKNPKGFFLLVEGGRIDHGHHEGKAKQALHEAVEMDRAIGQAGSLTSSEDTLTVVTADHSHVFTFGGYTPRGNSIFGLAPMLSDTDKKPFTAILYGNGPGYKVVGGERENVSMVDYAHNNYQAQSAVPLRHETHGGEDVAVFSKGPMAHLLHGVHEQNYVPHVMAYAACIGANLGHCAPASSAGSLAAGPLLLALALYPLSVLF
The experiment in a line: activation of tissue-nonspecific alkaline phosphatase – biochemical, TNAP isozyme, human IAP uHTS hits, selectivity assay for human IAP activator project, dose response (AID 488886).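 Note: potency of compounds raising TNAP activity as a selectivity check on IAP activators.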 It is filed as functional.

In experiment [12] the target is T8, Kappa-type opioid receptor (Homo sapiens, UniProt P41145). The experiment can be described thus: SAR analysis of small molecule agonists of the kappa opioid receptor via a luminescent beta-arrestin assay. [Related pubchem assays (depositor defined):AID1777, AID1786, AID1966, AID2133, AID2136, AID2348, AID2352, AID2357, AID2359, AID2370, AID2420, AID2478, AID2491, AID2492, AID2493, AID2497, AID2498, AID2500, AID449737, AID488822, AID488842]. It is filed as functional.

Experiment [13] has as its target T9, Mu-type opioid receptor (Homo sapiens, UniProt P35372). The experiment can be described thus: mu opioid receptor activators, image-based, SAR follow-up (AID 2352). Format: functional.
The target in experiment [14] is T10, Delta-type opioid receptor (Homo sapiens, UniProt P41143). The experiment can be described thus: DOR agonists, SAR follow-up, image-based (AID 2370). Format: functional.
Experiment [15] addresses T8, Kappa-type opioid receptor. The experiment in a line: kappa opioid receptor blockers, image-based, SAR follow-up (AID 2348). Format: functional.
For experiment [16], the target named is T9, Mu-type opioid receptor. The experiment in a line: mu opioid receptor blockers – image-based, SAR follow-up (AID 2420).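 Note: compounds added before stimulation of receptor with agonist DAMGO.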 It is filed as functional.
In experiment [17] the target is T8, Kappa-type opioid receptor. The experiment can be described thus: kappa opioid receptor activation potency – imaging, image-based, SAR follow-up (AID 2359). It is filed as functional.
Experiment [18] addresses T10, Delta-type opioid receptor. The experiment in a line: delta opioid receptor blockers – image-based, SAR follow-up (AID 2357). Format: functional.

Calls of active or inactive are those of the source.

T8 sequence (P41145 whole entry): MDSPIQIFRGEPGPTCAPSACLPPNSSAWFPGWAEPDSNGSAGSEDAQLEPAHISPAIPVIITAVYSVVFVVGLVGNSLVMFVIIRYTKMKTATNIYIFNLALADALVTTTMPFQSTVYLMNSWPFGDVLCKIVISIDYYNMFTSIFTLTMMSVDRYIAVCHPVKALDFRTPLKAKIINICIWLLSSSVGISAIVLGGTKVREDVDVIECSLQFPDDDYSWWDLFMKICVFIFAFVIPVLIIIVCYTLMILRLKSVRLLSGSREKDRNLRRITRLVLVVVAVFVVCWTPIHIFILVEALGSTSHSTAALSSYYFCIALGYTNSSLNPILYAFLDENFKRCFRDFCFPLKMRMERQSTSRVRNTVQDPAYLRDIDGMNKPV
T9 sequence (P35372 whole entry): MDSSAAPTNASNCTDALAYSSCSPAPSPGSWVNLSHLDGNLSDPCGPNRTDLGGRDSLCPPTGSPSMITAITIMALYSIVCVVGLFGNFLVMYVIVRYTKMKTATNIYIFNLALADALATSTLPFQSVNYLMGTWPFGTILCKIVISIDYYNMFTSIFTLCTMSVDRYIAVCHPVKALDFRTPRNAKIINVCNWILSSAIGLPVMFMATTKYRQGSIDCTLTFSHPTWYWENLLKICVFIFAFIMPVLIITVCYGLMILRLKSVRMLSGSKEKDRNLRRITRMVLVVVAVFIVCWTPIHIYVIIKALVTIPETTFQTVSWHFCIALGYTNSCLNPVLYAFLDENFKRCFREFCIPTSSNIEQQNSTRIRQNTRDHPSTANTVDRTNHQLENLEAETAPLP
T10 sequence (P41143 whole entry): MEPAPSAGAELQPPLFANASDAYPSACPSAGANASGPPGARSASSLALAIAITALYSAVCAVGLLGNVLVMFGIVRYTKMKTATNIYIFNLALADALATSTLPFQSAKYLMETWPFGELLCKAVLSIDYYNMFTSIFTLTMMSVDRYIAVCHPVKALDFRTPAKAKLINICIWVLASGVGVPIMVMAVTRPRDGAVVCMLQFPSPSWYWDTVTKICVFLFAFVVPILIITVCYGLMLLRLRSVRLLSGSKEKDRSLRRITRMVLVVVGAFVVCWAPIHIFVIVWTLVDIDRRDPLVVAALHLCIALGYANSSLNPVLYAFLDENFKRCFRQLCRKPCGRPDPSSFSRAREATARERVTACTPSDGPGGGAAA
T1 sequence (P98170 whole entry): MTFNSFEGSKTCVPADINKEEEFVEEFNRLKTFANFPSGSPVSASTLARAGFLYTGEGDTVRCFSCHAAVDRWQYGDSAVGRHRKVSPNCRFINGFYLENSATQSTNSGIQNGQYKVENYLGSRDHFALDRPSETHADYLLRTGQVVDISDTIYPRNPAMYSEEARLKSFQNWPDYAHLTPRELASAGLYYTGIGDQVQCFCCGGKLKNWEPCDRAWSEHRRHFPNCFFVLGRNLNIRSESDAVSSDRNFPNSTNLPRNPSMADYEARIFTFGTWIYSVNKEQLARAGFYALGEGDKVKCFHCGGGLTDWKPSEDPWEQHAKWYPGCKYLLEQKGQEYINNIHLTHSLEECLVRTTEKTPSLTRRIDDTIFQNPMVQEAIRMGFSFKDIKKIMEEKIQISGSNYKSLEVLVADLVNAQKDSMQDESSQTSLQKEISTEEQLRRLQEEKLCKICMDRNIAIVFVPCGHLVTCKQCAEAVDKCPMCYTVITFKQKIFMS
T6 sequence (P09923 whole entry): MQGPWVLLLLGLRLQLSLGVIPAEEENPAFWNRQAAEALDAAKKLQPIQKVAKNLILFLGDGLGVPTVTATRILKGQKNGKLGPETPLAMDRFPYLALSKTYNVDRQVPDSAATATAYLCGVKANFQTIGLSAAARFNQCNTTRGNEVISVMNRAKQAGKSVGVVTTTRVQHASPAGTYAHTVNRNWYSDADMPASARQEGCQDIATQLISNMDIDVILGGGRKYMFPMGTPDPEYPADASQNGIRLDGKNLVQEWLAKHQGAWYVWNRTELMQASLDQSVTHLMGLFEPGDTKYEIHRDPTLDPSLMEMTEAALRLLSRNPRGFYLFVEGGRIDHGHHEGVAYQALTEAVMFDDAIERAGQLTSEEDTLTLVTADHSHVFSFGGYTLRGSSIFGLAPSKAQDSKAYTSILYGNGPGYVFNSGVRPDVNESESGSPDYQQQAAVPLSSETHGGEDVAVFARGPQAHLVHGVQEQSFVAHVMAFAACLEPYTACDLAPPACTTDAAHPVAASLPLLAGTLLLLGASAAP
Sequence of Intestinal-type alkaline phosphatase (Mus musculus, UniProt P24822) (P24822 whole entry): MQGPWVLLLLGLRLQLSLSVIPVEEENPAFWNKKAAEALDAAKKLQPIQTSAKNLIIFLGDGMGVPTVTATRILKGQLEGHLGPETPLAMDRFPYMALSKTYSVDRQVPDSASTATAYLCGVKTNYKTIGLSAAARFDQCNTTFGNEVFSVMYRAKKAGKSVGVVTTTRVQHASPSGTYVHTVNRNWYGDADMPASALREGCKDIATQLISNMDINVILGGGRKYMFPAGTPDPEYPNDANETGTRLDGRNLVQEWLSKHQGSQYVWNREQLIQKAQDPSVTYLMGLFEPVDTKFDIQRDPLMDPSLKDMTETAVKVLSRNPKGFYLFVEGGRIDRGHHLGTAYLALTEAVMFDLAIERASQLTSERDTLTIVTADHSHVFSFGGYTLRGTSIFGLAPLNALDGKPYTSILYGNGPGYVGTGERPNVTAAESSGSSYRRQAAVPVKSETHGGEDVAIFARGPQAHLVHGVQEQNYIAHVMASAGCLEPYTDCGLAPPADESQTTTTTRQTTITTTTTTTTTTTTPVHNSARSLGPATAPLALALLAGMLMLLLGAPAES

Turning to `COc1ccccc1-c1nnc(SCC(=O)NCc2c(C)c(Cl)cc(C(C)C)c2O)o1`, the EC50 is 10.1 µM (active) in [1] and 12 µM (active) in experiment [4]. In addition, the values for the IC50 in [2], in [3] and in experiment [5] were > 100 µM (inactive), > 100 µM (not active) and 15.8 µM (not active), respectively.

Regarding `O=C(C1CCC1)N(CCc1ccccc1)Cc1nc(O)c2ccccc2n1`, the IC50 at Coagulation factor XII is > 50 µM (inactive).

Consider `NS(=O)(=O)c1ccc(NC(=O)N2CCN(Cc3ccccc3)CC2)cc1`, for which the IC50 in experiment [6] was > 100 µM (inactive).

`Cc1n[nH]c(S/C(=C/c2ccc(-c3ccc(Cl)cc3)o2)C(=O)O)n1`: the EC50 in [7] was 25.4 µM (active); in experiment [9], 12.8 µM (active); in experiment [10], 12.1 µM (active); in [11] it was > 100 µM (inactive). In [8], the half-inhibitory concentration (IC50) was 54.3 µM (active).

For the molecule `COc1ccc(C)cc1NC(=O)CSc1nnc(-c2ccccn2)n1Cc1ccco1`, the EC50 is > 10 µM (inactive) in experiment [12], > 32 µM (inactive) at Mu-type opioid receptor [13], > 32 µM (inactive) in [14] and > 32 µM (inactive) in experiment [17]. For the same molecule, the IC50 (in experiment [15]; on Mu-type opioid receptor [16]; in [18]) was > 32 µM (inactive) throughout.

Usually EC50 stands for the concentration at which the effect is half-maximal. As usually defined, the IC50 is the midpoint of a concentration-inhibition curve.
